From US20230146455A1, “TREATMENT OF INFLAMMATORY DISEASES WITH PEPTIDES AND PHARMACEUTICAL COMPOSITIONS” (Yuyu Pharma, Inc., priority 2020, published 2023)
Where “and” joins values, the source holds several entries; their conditions need not be identical. Equal values may be shown once. Where a SMILES comes first, the peptide text is derived from it. [ ]: non-standard residue; d: D form. Hyp = O=C(O)[C@@H]1C[C@@H](O)CN1

Test system: human PBMCs
Assay: PBMC cell counts (total, live, viability; trypan blue, Countess) with and without LPS and test articles (Example 9)
Assay type: cell-based
Protocol: Treatment Human PBMCs were pretreated with YY-101, YDE-011 and YDE-043 or reference compound; Xiidra® at various concentration (ranging from 1 nM to 100 uM) for 2 h before stimulation. An equal volume of 0.5% DMSO was used as a vehicle control. Then, the cells were treated with LPS at 5 ug/ml. The supernatants from treated cells were harvested at 24 h and placed in a 96 well for Luminex cytokine & chemokine profiling using a Luminex 200 multiplex assay (Luminex; R&D system, USA).
The main study arm with triplicate wells per group in a 24-well plate: • 1. Blank • 2. PBMC: 0.5% DMSO • 3. PBMC+LPS (5 ug/ml) • 4. PBMC+YY-101 100 uM • 5. PBMC+YY-101 10 uM • 6. PBMC+YY-101 1 uM • 7. PBMC+YY-101 0.1 uM • 8. PBMC+YY-101 0.01 uM • 9. PBMC+LPS (5 ug/ml)+Xiidra®100 uM • 10. PBMC+LPS (5 ug/ml)+Xiidra® 10 uM • 11. PBMC+LPS (5 ug/ml)+Xiidra® 1 uM • 12. PBMC+LPS (5 ug/ml)+Xiidra®0.1 uM • 13. PBMC+LPS (5 ug/ml)+Xiidra®0.01 uM • 14. PBMC+LPS (5 ug/ml)+Xiidra®0.001 uM • 15. PBMC+LPS (5 ug/ml)+YY-101 100 uM • 16. PBMC+LPS (5 ug/ml)+YY-101 10 uM • 17. PBMC+LPS (5 ug/ml)+YY-101 1 uM • 18. PBMC+LPS (5 ug/ml)+YY-101 0.1 uM • 19. PBMC+LPS (5 ug/ml)+YY-101 0.01 uM • 20. PBMC+LPS (5 ug/ml)+YY-101 0.001 uM • 21. PBMC+LPS (5 ug/ml)+YDE-011 100 uM • 22. PBMC+LPS (5 ug/ml)+YDE-011 10 uM • 23. PBMC+LPS (5 ug/ml)+YDE-011 1 uM • 24. PBMC+LPS (5 ug/ml)+YDE-011 0.1 uM • 25. PBMC+LPS (5 ug/ml)+YDE-011 0.01 uM • 26. PBMC+LPS (5 ug/ml)+YDE-011 0.001 uM • 27. PBMC+LPS (5 ug/ml)+YDE-043 100 uM • 28. PBMC+LPS (5 ug/ml)+YDE-043 10 uM • 29. PBMC+LPS (5 ug/ml)+YDE-043 1 uM • 30. PBMC+LPS (5 ug/ml)+YDE-043 0.1 uM • 31. PBMC+LPS (5 ug/ml)+YDE-043 0.01 uM • 32. PBMC+LPS (5 ug/ml)+YDE-043 0.001 uM
The number of PBMCs was measured after 24 hr of treatment. The culture both and trypan blue were diluted 1:1 and 10 ul was added to Countess cell counting chamber (Thermo fisher, USA). The number of PBMCs was measured using a Countess automated cell counter (Thermo fisher, USA).

[1] = PBMC + LPS(5 ug/ml) + compound 0.001 uM, 24 hr
[2] = PBMC + LPS(5 ug/ml) + compound 0.01 uM, 24 hr
[3] = PBMC + LPS(5 ug/ml) + compound 0.1 uM, 24 hr
[4] = PBMC + LPS(5 ug/ml) + compound 1 uM, 24 hr
[5] = PBMC + LPS(5 ug/ml) + compound 10 uM, 24 hr
[6] = PBMC + LPS(5 ug/ml) + compound 100 uM, 24 hr
[7] = PBMC + LPS(5 ug/ml) + test article 0.001 uM, Mean
[8] = PBMC + LPS(5 ug/ml) + test article 0.001 uM, single replicates
[9] = PBMC + LPS(5 ug/ml) + test article 0.01 uM, Mean
[10] = PBMC + LPS(5 ug/ml) + test article 0.01 uM, single replicates
[11] = PBMC + LPS(5 ug/ml) + test article 0.1 uM, Mean
[12] = PBMC + LPS(5 ug/ml) + test article 0.1 uM, single replicates
[13] = PBMC + LPS(5 ug/ml) + test article 1 uM, Mean
[14] = PBMC + LPS(5 ug/ml) + test article 1 uM, single replicates
[15] = PBMC + LPS(5 ug/ml) + test article 10 uM, Mean
[16] = PBMC + LPS(5 ug/ml) + test article 10 uM, single replicates

With `CC(C)C[C@H](NC(=O)[C@H](CCC(N)=O)NC(=O)CNC(=O)[C@@H]1C[C@@H](O)CN1)C(=O)NCC(=O)O` [YDE-043] (H-[Hyp]GQLG-OH; N-terminus and C-terminus assumed) as the molecule, how does the Live cell [1] read?
Its Live cell is 5.0 ± 0.5 10^5/ml.

And the Total cell [1]?
The Total cell was 6.3 ± 0.7 10^5/ml.

And the Live cell [2]?
The Live cell was 5.4 ± 0.6 10^5/ml.

And the Total cell [2]?
The Total cell was 6.9 ± 0.4 10^5/ml.

And the Live cell [3]?
Its Live cell is 5.4 ± 0.2 10^5/ml.

What about the Total cell [3] of the same molecule?
The Total cell was 6.6 ± 0.1 10^5/ml.

And the Live cell [4]?
The Live cell was 5.3 ± 0.3 10^5/ml.

And the Total cell [4]?
Its Total cell is 6.8 ± 0.6 10^5/ml.

And the Live cell [5]?
The Live cell was 5.4 ± 0.1 10^5/ml.

What about the Total cell [5] of the same molecule?
Its Total cell is 6.4 ± 0.1 10^5/ml.

And the Live cell [6]?
The Live cell was 6.3 ± 0.1 10^5/ml.

And the Total cell [6]?
Its Total cell is 7.6 ± 0.6 10^5/ml.

What about the Live cell [7] of the same molecule?
Its Live cell is 5.0 10^5/ml.

What about the “Live cell (10^5/ml)” value [7] of the same molecule?
The value was 5.0 10^5/ml.

And the “Live cell, Mean” value [7]?
Its value is 5.0 10^5/ml.

And the Live cell (PBMC + LPS(5 ug/ml) + test article 0.001 uM, individual replicates)?
Its Live cell is 4.4 10^5/ml and 6.0 10^5/ml and 4.6 10^5/ml.

What about the Live cell (PBMC + LPS(5 ug/ml) + test article 0.001 uM, individual replicates (1st, 2nd, 3rd)) of the same molecule?
The Live cell was 4.4 10^5/ml and 6.0 10^5/ml and 4.6 10^5/ml.

And the Live cell [8]?
The Live cell was 4.4 10^5/ml and 6.0 10^5/ml and 4.6 10^5/ml.

What about the “Live cell (10^5/ml)” value [8] of the same molecule?
Its value is 4.4 10^5/ml and 6.0 10^5/ml and 4.6 10^5/ml.

And the Live cell (PBMC + LPS(5 ug/ml) + test article 0.001 uM, single replicates (1st, 2nd, 3rd))?
The Live cell was 4.4 10^5/ml and 6.0 10^5/ml and 4.6 10^5/ml.

And the Live cell [9]?
The Live cell was 5.4 10^5/ml.

And the “Live cell (10^5/ml)” value [9]?
Its value is 5.4 10^5/ml.

What about the “Live cell, Mean” value [9] of the same molecule?
Its value is 5.4 10^5/ml.

And the Live cell (PBMC + LPS(5 ug/ml) + test article 0.01 uM, individual replicates)?
The Live cell was 4.5 10^5/ml and 6.6 10^5/ml and 5.0 10^5/ml.

And the Live cell (PBMC + LPS(5 ug/ml) + test article 0.01 uM, individual replicates (1st, 2nd, 3rd))?
The Live cell was 4.5 10^5/ml and 6.6 10^5/ml and 5.0 10^5/ml.

What about the Live cell [10] of the same molecule?
Its Live cell is 4.5 10^5/ml and 6.6 10^5/ml and 5.0 10^5/ml.

And the “Live cell (10^5/ml)” value [10]?
Its value is 4.5 10^5/ml and 6.6 10^5/ml and 5.0 10^5/ml.

And the Live cell (PBMC + LPS(5 ug/ml) + test article 0.01 uM, single replicates (1st, 2nd, 3rd))?
The Live cell was 4.5 10^5/ml and 6.6 10^5/ml and 5.0 10^5/ml.

What about the Live cell [11] of the same molecule?
Its Live cell is 5.4 10^5/ml.

And the “Live cell (10^5/ml)” value [11]?
The value was 5.4 10^5/ml.

What about the “Live cell, Mean” value [11] of the same molecule?
The value was 5.4 10^5/ml.

And the Live cell (PBMC + LPS(5 ug/ml) + test article 0.1 uM, individual replicates)?
The Live cell was 5.0 10^5/ml and 5.6 10^5/ml (2×).

What about the Live cell (PBMC + LPS(5 ug/ml) + test article 0.1 uM, individual replicates (1st, 2nd, 3rd)) of the same molecule?
The Live cell was 5.0 10^5/ml and 5.6 10^5/ml (2×).

What about the Live cell [12] of the same molecule?
Its Live cell is 5.0 10^5/ml and 5.6 10^5/ml (2×).

And the “Live cell (10^5/ml)” value [12]?
The value was 5.0 10^5/ml and 5.6 10^5/ml (2×).

What about the Live cell (PBMC + LPS(5 ug/ml) + test article 0.1 uM, single replicates (1st, 2nd, 3rd)) of the same molecule?
The Live cell was 5.0 10^5/ml and 5.6 10^5/ml (2×).

What about the Live cell [13] of the same molecule?
Its Live cell is 5.3 10^5/ml.

What about the “Live cell (10^5/ml)” value [13] of the same molecule?
Its value is 5.3 10^5/ml.

And the “Live cell, Mean” value [13]?
Its value is 5.3 10^5/ml.

What about the Live cell (PBMC + LPS(5 ug/ml) + test article 1 uM, individual replicates) of the same molecule?
Its Live cell is 5.8 10^5/ml and 4.8 10^5/ml and 5.3 10^5/ml.

And the Live cell (PBMC + LPS(5 ug/ml) + test article 1 uM, individual replicates (1st, 2nd, 3rd))?
The Live cell was 5.8 10^5/ml and 4.8 10^5/ml and 5.3 10^5/ml.

And the Live cell [14]?
Its Live cell is 5.8 10^5/ml and 4.8 10^5/ml and 5.3 10^5/ml.

And the “Live cell (10^5/ml)” value [14]?
Its value is 5.8 10^5/ml and 4.8 10^5/ml and 5.3 10^5/ml.

And the Live cell (PBMC + LPS(5 ug/ml) + test article 1 uM, single replicates (1st, 2nd, 3rd))?
The Live cell was 5.8 10^5/ml and 4.8 10^5/ml and 5.3 10^5/ml.

What about the Live cell [15] of the same molecule?
The Live cell was 5.4 10^5/ml.

And the “Live cell (10^5/ml)” value [15]?
Its value is 5.4 10^5/ml.

What about the “Live cell, Mean” value [15] of the same molecule?
Its value is 5.4 10^5/ml.

And the Live cell (PBMC + LPS(5 ug/ml) + test article 10 uM, individual replicates)?
The Live cell was 5.2 10^5/ml and 5.4 10^5/ml and 5.6 10^5/ml.

What about the Live cell (PBMC + LPS(5 ug/ml) + test article 10 uM, individual replicates (1st, 2nd, 3rd)) of the same molecule?
The Live cell was 5.2 10^5/ml and 5.4 10^5/ml and 5.6 10^5/ml.

And the Live cell [16]?
Its Live cell is 5.2 10^5/ml and 5.4 10^5/ml and 5.6 10^5/ml.

What about the “Live cell (10^5/ml)” value [16] of the same molecule?
Its value is 5.2 10^5/ml and 5.4 10^5/ml and 5.6 10^5/ml.
